# According to paper PMC11995724, “Antibiotic target discovery by integrated phenotypic and activity-based profiling of electrophilic fragments” (Cell chemical biology, 2025):
# Assay: in vitro
# Settings: human, hek293t cells
row,SMILES,"viability at 48 h, 25 µM [%]"
1,"C=CC(=O)Nc1cccc(C(=O)C(C)(C)C)c1 [2-I18, N-[3-(2,2-dimethylpropanoyl)phenyl]prop-2-enamide]",105
2,"C=CC(=O)N1CC2(CCCC2)CC1CO (stereo not shown) [2-I19, 1-[3-(hydroxymethyl)-2-azaspiro[4.4]nonan-2-yl]prop-2-en-1-one]",82.4
3,"C=CC(=O)N(C)CC(=O)NCc1c(O)nnc(C)c1C [2-I20, N-({[(3-hydroxy-5,6-dimethylpyridazin-4-yl)methyl]carbamoyl}methyl)-N-methylprop-2-enamide]",91.6
4,"C=CC(=O)Nc1ccc(C(=O)N2CCCC2C(=O)NC2CC2)cc1 (stereo not shown) [2-I21, N-cyclopropyl-1-[4-(prop-2-enamido)benzoyl]pyrrolidine-2-carboxamide]",175
5,"C=CC(=O)Nc1ccc(N2CCCCC2)c(F)c1 [2-I22, N-[3-fluoro-4-(piperidin-1-yl)phenyl]prop-2-enamide]",92.5
6,"C=CC(=O)NCC1CCc2nnc(C(C)C)n2C1 (stereo not shown) [2-J03, N-{[3-(propan-2-yl)-5H,6H,7H,8H-[1,2,4]triazolo[4,3-a]pyridin-6-yl]methyl}prop-2-enamide]",60.6
7,"C=CC(=O)N(C)CC(=O)N1CCOC(c2ccccc2Cl)C1 (stereo not shown) [2-J04, N-{2-[2-(2-chlorophenyl)morpholin-4-yl]-2-oxoethyl}-N-methylprop-2-enamide]",72.1
8,"C=CC(=O)NC(C)C(c1ccccc1Cl)n1cccn1 (stereo not shown) [2-J05, N-[1-(2-chlorophenyl)-1-(1H-pyrazol-1-yl)propan-2-yl]prop-2-enamide]",84.5
9,"C=CC(=O)N1CCC(C(=O)N2CCC(Cc3ncon3)CC2)CC1 [2-J06, 1-(4-{4-[(1,2,4-oxadiazol-3-yl)methyl]piperidine-1-carbonyl}piperidin-1-yl)prop-2-en-1-one]",74.2
10,"C=CC(=O)NCc1c(Cl)c(C(F)(F)F)nn1C [2-J07, N-{[4-chloro-1-methyl-3-(trifluoromethyl)-1H-pyrazol-5-yl]methyl}prop-2-enamide]",72.8
11,"C=CC(=O)N1CCC(C(=O)N[C@H]2CC[C@@H](S(C)(=O)=O)CC2)CC1 [2-J08, 1-(prop-2-enoyl)-N-[(1s,4s)-4-methanesulfonylcyclohexyl]piperidine-4-carboxamide]",86.3
12,"C=CC(=O)N1CCC(C(=O)Nc2cccc(-c3n[nH]c(C)n3)c2)CC1 [2-J09, N-[3-(5-methyl-1H-1,2,4-triazol-3-yl)phenyl]-1-(prop-2-enoyl)piperidine-4-carboxamide]",58.8
13,"C=CC(=O)N1CCC(C(=O)N2CCCC(C)(CC)C2)CC1 (stereo not shown) [2-J10, 1-[4-(3-ethyl-3-methylpiperidine-1-carbonyl)piperidin-1-yl]prop-2-en-1-one]",67.4
14,"C=CC(=O)NCC(O)c1ncccc1OC (stereo not shown) [2-J11, N-[2-hydroxy-2-(3-methoxypyridin-2-yl)ethyl]prop-2-enamide]",80.8
15,"C=CC(=O)N1CCC(C(=O)N(C)CCn2cccn2)CC1 [2-J12, N-methyl-1-(prop-2-enoyl)-N-[2-(1H-pyrazol-1-yl)ethyl]piperidine-4-carboxamide]",74.5
16,"C=CC(=O)N(C)Cc1cn(C2CC2)cn1 [2-J13, N-[(1-cyclopropyl-1H-imidazol-4-yl)methyl]-N-methylprop-2-enamide]",76.5
17,"C=CC(=O)N1CCC(C(=O)N2CCC(CC(N)=O)C2)CC1 (stereo not shown) [2-J14, 2-{1-[1-(prop-2-enoyl)piperidine-4-carbonyl]pyrrolidin-3-yl}acetamide]",65
18,"C=CC(=O)NCc1ccsc1S(N)(=O)=O [2-J15, N-[(2-sulfamoylthiophen-3-yl)methyl]prop-2-enamide]",53.1
19,"C=CC(=O)N(CC)CC(=O)N1CC(C)(C)C1c1nccn1C (stereo not shown) [2-J16, N-{2-[3,3-dimethyl-2-(1-methyl-1H-imidazol-2-yl)azetidin-1-yl]-2-oxoethyl}-N-ethylprop-2-enamide]",59.5
20,"C=CC(=O)NC1(Cn2cccn2)CC(F)(F)C1 [2-J17, N-{3,3-difluoro-1-[(1H-pyrazol-1-yl)methyl]cyclobutyl}prop-2-enamide]",54.5
21,"C=CC(=O)NCCNC(=O)[C@@]12CC[C@@](C)(C(=O)O1)C2(C)C [2-J18, N-(2-{[(1S,4R)-4,7,7-trimethyl-3-oxo-2-oxabicyclo[2.2.1]heptan-1-yl]formamido}ethyl)prop-2-enamide]",52.8
22,"C=CC(=O)NC1CCS(=O)(=O)c2ccc(F)cc21 (stereo not shown) [2-J19, N-(6-fluoro-1,1-dioxo-3,4-dihydro-2H-1lambda6-benzothiopyran-4-yl)prop-2-enamide]",55.4
23,"C=CC(=O)NCc1ccc(C(=O)N2CCC(C(C)(C)O)CC2)cc1 [2-J20, N-({4-[4-(2-hydroxypropan-2-yl)piperidine-1-carbonyl]phenyl}methyl)prop-2-enamide]",74.2
24,"C=CC(=O)N1CCC(c2nnc3n2CCCC3)CC1 [2-J21, 1-(4-{5H,6H,7H,8H-[1,2,4]triazolo[4,3-a]pyridin-3-yl}piperidin-1-yl)prop-2-en-1-one]",67.6
25,"C=CC(=O)N(C)CC(=O)N1CCN(C(=O)c2cccc(O)c2)CC1 [2-J22, N-{2-[4-(3-hydroxybenzoyl)piperazin-1-yl]-2-oxoethyl}-N-methylprop-2-enamide]",97.7

row,SMILES,"viability at 48 h, 25 µM [%]"
1,"C=CC(=O)N1CCC(c2nc(C(=O)O)co2)CC1 [2-K03, 2-[1-(prop-2-enoyl)piperidin-4-yl]-1,3-oxazole-4-carboxylic acid]",99.1
2,"C=CC(=O)N1CCC(C(=O)N[C@H]2CCC[C@H]2O)CC1 [2-K04, N-[(1S,2R)-2-hydroxycyclopentyl]-1-(prop-2-enoyl)piperidine-4-carboxamide]",84.2
3,"C=CC(=O)N(Cc1ccc(Cl)o1)C1CCCC12CCOCC2 (stereo not shown) [2-K05, N-[(5-chlorofuran-2-yl)methyl]-N-{8-oxaspiro[4.5]decan-1-yl}prop-2-enamide]",99.7
4,"C=CC(=O)N1C2CCCC1CC1(C2)NC(=O)NC1=O (stereo not shown) [2-K06, 9-(prop-2-enoyl)-9-azaspiro[bicyclo[3.3.1]nonane-3,4'-imidazolidine]-2',5'-dione]",89.2
5,"C=CC(=O)N1CCCCC1Cn1ccnn1 (stereo not shown) [2-K07, 1-{2-[(1H-1,2,3-triazol-1-yl)methyl]piperidin-1-yl}prop-2-en-1-one]",89.3
6,"C=CC(=O)NCCC(=O)N1CCSC(C)CC1 (stereo not shown) [2-K08, N-[3-(7-methyl-1,4-thiazepan-4-yl)-3-oxopropyl]prop-2-enamide]",91.8
7,"C=CC(=O)N1CCC(c2nc(N(C)C)no2)CC1 [2-K09, 1-{4-[3-(dimethylamino)-1,2,4-oxadiazol-5-yl]piperidin-1-yl}prop-2-en-1-one]",194
8,"C=CC(=O)N(C)CC(=O)N1CCn2cccc2C1C (stereo not shown) [2-K10, N-methyl-N-(2-{1-methyl-1H,2H,3H,4H-pyrrolo[1,2-a]pyrazin-2-yl}-2-oxoethyl)prop-2-enamide]",101
9,"C=CC(=O)Nc1ccc(F)c(-n2nnnc2C)c1 [2-K11, N-[4-fluoro-3-(5-methyl-1H-1,2,3,4-tetrazol-1-yl)phenyl]prop-2-enamide]",195
10,"C=CC(=O)N1CCCC(c2nc(C)no2)C1 (stereo not shown) [2-K12, 1-[3-(3-methyl-1,2,4-oxadiazol-5-yl)piperidin-1-yl]prop-2-en-1-one]",101
11,"C=CC(=O)Nc1ccnn1C1CCCC1 [2-K13, N-(1-cyclopentyl-1H-pyrazol-5-yl)prop-2-enamide]",24
12,"C=CC(=O)NC(Cc1ccccc1)c1ccccn1 (stereo not shown) [2-K14, N-[2-phenyl-1-(pyridin-2-yl)ethyl]prop-2-enamide]",113
13,"C=CC(=O)N1CCC(C(=O)Nc2nc3cc(F)c(C)cc3s2)CC1 [2-K15, N-(5-fluoro-6-methyl-1,3-benzothiazol-2-yl)-1-(prop-2-enoyl)piperidine-4-carboxamide]",191
14,"C=CC(=O)Nc1ccc2nc(O)n(C3CC3)c2c1 [2-K16, N-(1-cyclopropyl-2-hydroxy-1H-1,3-benzodiazol-6-yl)prop-2-enamide]",83.3
15,"C=CC(=O)N1CCC(NC(=O)c2oc(C)cc2C)CC1 [2-K17, 3,5-dimethyl-N-[1-(prop-2-enoyl)piperidin-4-yl]furan-2-carboxamide]",79.7
16,"C=CC(=O)N1CCC(C(=O)NC2CCCc3cc(F)ccc32)CC1 (stereo not shown) [2-K18, N-(6-fluoro-1,2,3,4-tetrahydronaphthalen-1-yl)-1-(prop-2-enoyl)piperidine-4-carboxamide]",94.2
17,"C=CC(=O)N[C@H]1CCO[C@@H]1c1ccnn1C [2-K19, N-[(2S,3S)-2-(1-methyl-1H-pyrazol-5-yl)oxolan-3-yl]prop-2-enamide]",96.4
18,"C=CC(=O)N1CCC(C(=O)N(C)C(C)CC(N)=O)CC1 (stereo not shown) [2-K20, 3-{N-methyl-1-[1-(prop-2-enoyl)piperidin-4-yl]formamido}butanamide]",88.3
19,"C=CC(=O)Nc1ccc(C(=O)NCC2CSCCS2)cc1 (stereo not shown) [2-K21, N-[(1,4-dithian-2-yl)methyl]-4-(prop-2-enamido)benzamide]",91.9
20,"C=CC(=O)N(C)Cc1nc2c(n1C)CCCC2 [2-K22, N-methyl-N-[(1-methyl-4,5,6,7-tetrahydro-1H-1,3-benzodiazol-2-yl)methyl]prop-2-enamide]",87.1
21,"C=CC(=O)NC1(Cc2nnc3ccccn23)CCCCC1 [2-L03, N-[1-({[1,2,4]triazolo[4,3-a]pyridin-3-yl}methyl)cyclohexyl]prop-2-enamide]",76.2
22,"C=CC(=O)N(C)CC(=O)N1CCN(c2ccccc2[N+](=O)[O-])CC1 [2-L04, N-methyl-N-{2-[4-(2-nitrophenyl)piperazin-1-yl]-2-oxoethyl}prop-2-enamide]",83.6
23,"C=CC(=O)NCCc1nnc(C(C)C)s1 [2-L05, N-{2-[5-(propan-2-yl)-1,3,4-thiadiazol-2-yl]ethyl}prop-2-enamide]",61.9
24,"C=CC(=O)N1CCC(C(=O)N2CCN(c3ccnc(C)n3)CC2)CC1 [2-L06, 1-{4-[4-(2-methylpyrimidin-4-yl)piperazine-1-carbonyl]piperidin-1-yl}prop-2-en-1-one]",88.5
